Laboratory results taken from US3943129A, “7-Amino-3-(1,3,4-thiadiazolinylthio-methyl) cephalosporins” (SmithKline Corporation, priority 1974, dated 1976).
Values after ≈ are worked out from the molar mass of the structure shown.

Columns and labels:
E. coli SK 12140 [1] = assay: In vivo ED50 in infected mice, subcutaneous; settings: Escherichia coli, SK12140, in Mus musculus, sc
Kleb. pneumo. SK 4200 [2] = assay: In vivo ED50 in infected mice, subcutaneous; settings: Mus musculus, sc
Kleb. pneumo. SK 4200 [3] = assay: Minimum inhibitory concentration (MIC)
Strep. pyog. C203 = assay: Minimum inhibitory concentration (MIC)
[4] = test system: Entero. aerogenes ATCC13048; assay: Minimum inhibitory concentration (MIC); settings: Klebsiella aerogenes
Staph. aurcus villaluz = assay: Minimum inhibitory concentration (MIC)
[5] = test system: Serrantia marcescens ATCC 13880; assay: Minimum inhibitory concentration (MIC)
S. aureus HH 127 = assay: Minimum inhibitory concentration (MIC); settings: Staphylococcus aureus, HH127
[6] = test system: Sal. paratyphi ATCC 12176; assay: Minimum inhibitory concentration (MIC); type: cell-based; settings: Salmonella enterica
E. coli HH 33779 = assay: Minimum inhibitory concentration (MIC); settings: Escherichia coli, HH33779
S. aureus SK 23390 = assay: Minimum inhibitory concentration (MIC); settings: Staphylococcus aureus, SK23390
Kleb. pneumo. SK 1200 = assay: Minimum inhibitory concentration (MIC)
E. coli SK 12140 [7] = assay: Minimum inhibitory concentration (MIC); settings: Escherichia coli, SK12140
Pseudomonas sp. HH 63 = assay: Minimum inhibitory concentration (MIC); settings: SP.HH63
Strep. faecalis HH 34358 = assay: Minimum inhibitory concentration (MIC); settings: Enterococcus faecalis, HH34358
[8] = test system: Entero. cloaca Pa.S.L.969; assay: Minimum inhibitory concentration (MIC)
Shig. paradys. HH 127 = assay: Minimum inhibitory concentration (MIC)
Stability in solution = type: physicochemical; settings: neutral or basic pH, vs any prior art compounds that were tested
Stability to copper ion = type: physicochemical; settings: vs tested prior art compounds
E. coli = assay: In vivo ED50 in infected mice, oral; settings: Escherichia coli, in Mus musculus
Kleb. pneumonia = assay: In vivo ED50 in infected mice, oral; settings: Mus musculus

| SMILES | ED50 (E. coli SK 12140 [1]) [mg/kg] | ED50 (Kleb. pneumo. SK 4200 [2]) [mg/kg] | MIC (Kleb. pneumo. SK 4200 [3]) [µg/mL] | MIC (Strep. pyog. C203) [µg/mL] | MIC [4] [µg/mL] | MIC (Staph. aurcus villaluz) [µg/mL] | MIC [5] [µg/mL] | MIC (S. aureus HH 127) [µg/mL] | MIC [6] [µg/mL] | MIC (E. coli HH 33779) [µg/mL] | MIC (S. aureus SK 23390) [µg/mL] | MIC (Kleb. pneumo. SK 1200) [µg/mL] | MIC (E. coli SK 12140 [7]) [µg/mL] | MIC (Pseudomonas sp. HH 63) [µg/mL] | MIC (Strep. faecalis HH 34358) [µg/mL] | MIC [8] [µg/mL] | also measured |
| --- | --- | --- | --- | --- | --- | --- | --- | --- | --- | --- | --- | --- | --- | --- | --- | --- | --- |
| O=C(O)C1=C(CSc2n[nH]c(=S)s2)CSC2C(NC(=O)C(O)c3ccccc3)C(=O)N12 (stereo not shown) [VII] | 21.5 | 64 | 1.6 (≈ 3.22 µM) | 0.2 (≈ 0.403 µM) | 12.5 (≈ 25.2 µM) | 12.5 (≈ 25.2 µM) | 200 (≈ 403 µM) | 0.8 (≈ 1.61 µM) | 0.8 (≈ 1.61 µM) | 3.1 (≈ 6.24 µM) | 0.4 (≈ 0.805 µM) | 0.8 (≈ 1.61 µM) | 1.6 (≈ 3.22 µM) | > 200 | 25 (≈ 50.3 µM) | – | – |
| CCn1c(SCC2=C(C(=O)O)N3C(=O)C(NC(=O)C(N)c4ccccc4)C3SC2)n[nH]c1=O (stereo not shown) [III] | 29 | 92 | 6.3 (≈ 12.8 µM) | 0.1 (≈ 0.204 µM) | 25 (≈ 51 µM) | 25 (≈ 51 µM) | 200 (≈ 408 µM) | 3.1 (≈ 6.32 µM) | 3.1 (≈ 6.32 µM) | 12.5 (≈ 25.5 µM) | 3.1 (≈ 6.32 µM) | 6.3 (≈ 12.8 µM) | 12.5 (≈ 25.5 µM) | > 200 | 25 (≈ 51 µM) | 25 (≈ 51 µM) | – |
| CC1=C(C(=O)O)N2C(=O)[C@@H](NC(=O)[C@H](N)c3ccccc3)[C@H]2SC1 [S-II, cephalexin, reference compound] | 12 | 25 | 6.3 (≈ 18.1 µM) | 0.1 (≈ 0.288 µM) | 12.5 (≈ 36 µM) | 50 (≈ 144 µM) | 50 (≈ 144 µM) | 3.1 (≈ 8.92 µM) | 3.1 (≈ 8.92 µM) | 6.3 (≈ 18.1 µM) | 1.6 (≈ 4.61 µM) | 3.1 (≈ 8.92 µM) | 6.3 (≈ 18.1 µM) | > 200 | 50 (≈ 144 µM) | 6.3 (≈ 18.1 µM) | – |
| O=C(Cc1cccs1)N[C@@H]1C(=O)N2C(C(=O)[O-])=C(C[n+]3ccccc3)CS[C@H]12 [S-I, cephaloridine, reference compound] | 6 | 7.6 | 3.1 (≈ 7.46 µM) | 0.1 (≈ 0.241 µM) | > 200 | 12.5 (≈ 30.1 µM) | > 200 | 0.4 (≈ 0.963 µM) | 1.6 (≈ 3.85 µM) | 6.3 (≈ 15.2 µM) | 0.1 (≈ 0.241 µM) | 3.1 (≈ 7.46 µM) | 3.1 (≈ 7.46 µM) | > 200 | 6.3 (≈ 15.2 µM) | > 200 | MIC (Shig. paradys. HH 127): 1.6 µg/mL (≈ 3.85 µM) |
| NC(C(=O)NC1C(=O)N2C(C(=O)O)=C(CSc3n[nH]c(=O)[nH]3)CSC12)c1ccccc1 (stereo not shown) [Compound I] | 2.9 | 7 | 3.1 (≈ 6.7 µM) | 0.1 (≈ 0.216 µM) | 6.3 (≈ 13.6 µM) | 12.5 (≈ 27 µM) | 200 (≈ 432 µM) | 1.6 (≈ 3.46 µM) | 1.6 (≈ 3.46 µM) | 6.3 (≈ 13.6 µM) | 1.6 (≈ 3.46 µM) | 3.1 (≈ 6.7 µM) | 3.1 (≈ 6.7 µM) | > 200 | 50 (≈ 108 µM) | 12.5 (≈ 27 µM) | stability in solution (Stability in solution): more stable in solution at neutral or basic pH than any prior art compounds that were tested; stability to copper ion (Stability to copper ion): greater stability to copper ion than tested prior art compounds |
| Cn1c(SCC2=C(C(=O)O)N3C(=O)C(NC(=O)C(N)c4ccccc4)C3SC2)n[nH]c1=O (stereo not shown) [II] | 12.5 | 11.5 | 6.3 (≈ 13.2 µM) | 0.1 (≈ 0.21 µM) | 25 (≈ 52.5 µM) | 25 (≈ 52.5 µM) | > 200 | 6.3 (≈ 13.2 µM) | 3.1 (≈ 6.51 µM) | 25 (≈ 52.5 µM) | 3.1 (≈ 6.51 µM) | 6.3 (≈ 13.2 µM) | 12.5 (≈ 26.2 µM) | > 200 | 50 (≈ 105 µM) | 50 (≈ 105 µM) | – |
| Cn1c(SCC2=C(C(=O)O)N3C(=O)C(NC(=O)C(O)c4ccccc4)C3SC2)n[nH]c1=O (stereo not shown) [VI] | 9 | 21 | – | 0.1 (≈ 0.209 µM) | 12.5 (≈ 26.2 µM) | 12.5 (≈ 26.2 µM) | > 200 | 1.6 (≈ 3.35 µM) | 3.1 (≈ 6.49 µM) | 12.5 (≈ 26.2 µM) | 0.4 (≈ 0.838 µM) | 3.1 (≈ 6.49 µM) | 6.3 (≈ 13.2 µM) | > 200 | 25 (≈ 52.4 µM) | – | – |
| O=C(O)C1=C(CSc2n[nH]c(=O)[nH]2)CSC2C(NC(=O)C(O)c3ccccc3)C(=O)N12 (stereo not shown) [V] | 4 | 8.7 | 3.1 (≈ 6.69 µM) | 0.1 (≈ 0.216 µM) | 12.5 (≈ 27 µM) | 25 (≈ 53.9 µM) | > 200 | 0.8 (≈ 1.73 µM) | 1.6 (≈ 3.45 µM) | 6.3 (≈ 13.6 µM) | 0.4 (≈ 0.863 µM) | 1.6 (≈ 3.45 µM) | 3.1 (≈ 6.69 µM) | > 200 | 50 (≈ 108 µM) | 12.5 (≈ 27 µM) | – |
| NC(C(=O)NC1C(=O)N2C(C(=O)O)=C(CSc3n[nH]c(=O)[nH]3)CSC12)c1ccc(O)cc1 (stereo not shown) [Compound IV] | 4 | 2.8 | 6.3 (≈ 13.2 µM) | 0.1 (≈ 0.209 µM) | 12.5 (≈ 26.1 µM) | 25 (≈ 52.2 µM) | > 200 | 6.3 (≈ 13.2 µM) | 6.3 (≈ 13.2 µM) | 25 (≈ 52.2 µM) | 6.3 (≈ 13.2 µM) | 12.5 (≈ 26.1 µM) | 6.3 (≈ 13.2 µM) | > 200 | 100 (≈ 209 µM) | – | ED50 (E. coli): 9.5 mg/kg; ED50 (Kleb. pneumonia): 6.2 mg/kg |
